Test results as given in PubChem BioAssay (NCI).
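The concentration for 50% growth inhibition is given as GI50. The concentration for full growth arrest is given as TGI.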

Experiments:
Test in all cases: inhibition of tumour cell growth, NCI panel, 384-well format
SW-620 colon = tested on: SW-620 colon
SF-539 CNS = tested on: SF-539 CNS
TK-10 renal = tested on: TK-10 renal
OVCAR-8 ovarian = tested on: OVCAR-8 ovarian
MDA-MB-231 breast = tested on: MDA-MB-231 breast
SK-MEL-28 melanoma = tested on: SK-MEL-28 melanoma
HT29 colon = tested on: HT29 colon
RPMI-8226 leukemia = tested on: RPMI-8226 leukemia
UACC-62 melanoma = tested on: UACC-62 melanoma
SNB-75 CNS = tested on: SNB-75 CNS
MCF7 breast = tested on: MCF7 breast
LOX IMVI melanoma = tested on: LOX IMVI melanoma
HCC-2998 colon = tested on: HCC-2998 colon

In the case of `Cn1ncc2cc(-c3cnc(N)c(Cl)c3N3CCC4(CCNC4=O)CC3)ccc21`, the GI50 (SW-620 colon) is reported as 3.59 µM, the TGI (SW-620 colon) is reported as 17.5 µM and the GI50 (SF-539 CNS) is reported as 48.6 µM. The TGI (SF-539 CNS) was > 100 µM, the GI50 (TK-10 renal) was 38.2 µM and the TGI (TK-10 renal) was > 100 µM. For the same molecule, the GI50 (OVCAR-8 ovarian) was 34.8 µM, the TGI (OVCAR-8 ovarian) was > 100 µM and the GI50 (MDA-MB-231 breast) was 32.8 µM. For the same molecule, the TGI (MDA-MB-231 breast) was > 100 µM, the GI50 (SK-MEL-28 melanoma) was 39.6 µM and the TGI (SK-MEL-28 melanoma) was > 100 µM. For the same molecule, the GI50 (HT29 colon) was 16.6 µM, the TGI (HT29 colon) was > 59.9 µM and the GI50 (RPMI-8226 leukemia) was 3.6 µM. It also gave a TGI (RPMI-8226 leukemia) of 27.6 µM, a GI50 (UACC-62 melanoma) of 33.2 µM and a TGI (UACC-62 melanoma) of 97.6 µM. For the same molecule, the GI50 (SNB-75 CNS) was 58.3 µM, the TGI (SNB-75 CNS) was > 100 µM and the GI50 (MCF7 breast) was 48.1 µM. For the same molecule, the TGI (MCF7 breast) was > 100 µM, the GI50 (LOX IMVI melanoma) was 39.5 µM and the TGI (LOX IMVI melanoma) was > 100 µM. For the same molecule, the GI50 (HCC-2998 colon) was 43.1 µM and the TGI (HCC-2998 colon) was > 100 µM.
